Measured values taken from PMC10702411 (Nature structural & molecular biology, 2023).

Columns and labels:
[1] = biological target: BIRC2BIR3 (Homo sapiens, UniProt Q13490); test: X-ray crystal structure of BIRC2BIR3 complex; type: binding; settings: Supplementary Fig. 2
[2] = tested on: D234A and E239A mutants of BIRC2BIR2; test: NMR and pulldown, BIRC2BIR2 D234A and E239A mutants; type: binding, human; settings: NMR and pulldown (performed twice)
[3] = tested on: D320A and E325A mutants of BIRC2BIR3; test: NMR and pulldown, BIRC2BIR3 D320A and E325A mutants; type: binding, human; settings: NMR and pulldown (performed twice)
[4] = tested on: IFNγ stimulated ex vivo differentiated monocyte-derived macrophages; test: cytokine antibody array, macrophages; type: cell-based, human; settings: 10 μM embelin, IFNγ 24 h, supernatants; array in duplicate
[5] = tested on: cancer cells; settings: cited from earlier work
[6] = tested on: HIV-TCM; test: HIV-1 p24 antigen release; type: cell-based; settings: Supplementary Fig. 7c,d
[7] = tested on: BIRC2 and BIRC3 in HIV-TCM; test: western blot of BIRC2 and BIRC3, HIV-TCM; type: cell-based, human; settings: 100 nM LCL161, 4 h, n = 4
[8] = tested on: RIPK1; test: RIPK1 ubiquitination and Ser166 phosphorylation; type: cell-based, human; settings: 100 nM LCL161, 5 min (ubiquitination) or 4 h; n = 4
[9] = cited from earlier work
[10] = tested on: TCM; test: apoptosis / cell death read-outs, uninfected TCM; type: cell-based, human; settings: LCL161, 4 h
[11] = tested on: mouse embryonic fibroblasts (MEFs); test: MTT survival assay, MEF; type: cell-based; settings: LCL161 and/or TNF, 24 h, three independent biological replicates
[12] = tested on: human glioma LN18 cells; test: MTT survival assay, LN18; type: cell-based; settings: LCL161 and/or TNF, 24 h, three independent biological replicates
[13] = tested on: BIRC2 and BIRC3 in TCM; test: western blot of BIRC2 and BIRC3, uninfected TCM; type: cell-based, human; settings: uninfected cells (TCM), 100 nM LCL161, 4 h; n = 4
[14] = tested on: HIV-TCM; test: LDH release assay, HIV-TCM; type: cell-based, human; settings: LCL161, 4 h, n = 4
[15] = tested on: FAS DISC in TCM; test: FAS DISC coimmunoprecipitation, TCM; type: cell-based, human; settings: 100 nM LCL161, 4 h, co-IP, n = 4
[16] = tested on: HIV-TCM; test: Cell Death Detection ELISA, HIV-TCM; type: cell-based, human; settings: LCL161, 4 h, n = 4
[17] = tested on: HIV-TCM; test: annexin V / propidium iodide flow cytometry, HIV-TCM; type: cell-based, human; settings: LCL161, Supplementary Fig. 8
[18] = tested on: caspase-3 and PARP1 in HIV-TCM; test: western blot of caspase-3 and PARP1, HIV-TCM; type: cell-based, human; settings: 100 nM LCL161, 4 h, n = 4
[19] = tested on: BIRC2_3BIR D234A/D320A; test: pulldown, BIRC2_3BIR D234A/D320A; type: binding, human; settings: D234A/D320A concurrently, performed twice

BIRC2BIR3, sequence (Q13490 261-346): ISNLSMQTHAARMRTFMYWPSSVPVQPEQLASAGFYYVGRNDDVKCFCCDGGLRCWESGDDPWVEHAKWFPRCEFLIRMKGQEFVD

## AVPI [SMAC]
[1]
  binding site in overlay of structures: occupy the same binding site of BIRC2BIR3

## H3T3ph: H3 peptide with phosphorylation of Thr3
[2]
  binding to mutant domain: abrogated binding
[3]
  binding to mutant domain: abrogated binding

## CCCCCCCCCCCC1=C(O)C(=O)C=C(O)C1=O [embelin]
[4]
  interleukin-6 (IL-6) level: increase of interleukin-6 (IL-6)

## CN[C@@H](C)C(=O)N[C@H](C(=O)N1CCC[C@H]1c1nc(C(=O)c2ccc(F)cc2)cs1)C1CCCCC1 [LCL161]
[5]; at least two dozen tumor types
  anticancer activity: potent anticancer activity in at least two dozen tumor types
[5]; with cisplatin and vincristine
  sensitization of cancer cells to chemotherapy: sensitizes cancer cells to conventional chemotherapy with cisplatin and vincristine
[6]
  HIV-1 p24 antigen release: not accompanied by an increase in HIV-1 p24 antigen release
[7]
  degradation of BIRC2 and BIRC3: induced the rapid degradation of BIRC2 and BIRC3
[8]
  RIPK1 deubiquitination, phosphorylation and activation: deubiquitination and Ser166 phosphorylation and thus activation of RIPK1
[9]; among SMAC mimetic compounds
  antiproliferation and bioavailability properties: one of the most promising antiproliferation and bioavailability properties
[9]
  pharmacological properties: favorable pharmacological properties
  toxicity: minor toxicity
[10]
  apoptosis / LDH release in uninfected cells: not in the uninfected cells
[11]
  sensitization to killing by TNF: sensitized mouse embryonic fibroblasts (MEFs) and human glioma LN18 cells to killing by TNF
[12]
  sensitization to killing by TNF: sensitized mouse embryonic fibroblasts (MEFs) and human glioma LN18 cells to killing by TNF
[13]
  degradation of BIRC2 and BIRC3: induced the rapid degradation of BIRC2 and BIRC3
[14]
  LDH release: increase in lactate dehydrogenase (LDH) release
[15]
  association of FADD, cFLIPS and Ser166 phosphorylated RIPK1 with FAS: did not associate with FAS
[16]
  cytoplasmic histone-associated DNA fragments: increase in cytoplasmic histone-associated DNA fragments
[17]
  phosphatidylserine translocation: translocation of phosphatidylserine from the inner to the outer leaflet
  plasma membrane permeabilization: permeabilization of the plasma membrane
[18]
  caspase-3 cleavage: cleavage of caspase-3

## H3: N terminus of H3 (residues 1–22 of H3), histone peptide in pulldowns
[2]
  binding to mutant domain: abrogated binding
[19]
  binding to double mutant of triple BIR: disrupt binding
[3]
  binding to mutant domain: abrogated binding

## ATPF [caspase-9]
[1]
  binding site in overlay of structures: occupy the same binding site of BIRC2BIR3
